The source of these data is BindingDB's records for doi:10.1016/j.chembiol.2011.03.012 (Riken Advanced Science Institute, 2011).

DNA topoisomerase 2-alpha, sequence (P11388 whole entry): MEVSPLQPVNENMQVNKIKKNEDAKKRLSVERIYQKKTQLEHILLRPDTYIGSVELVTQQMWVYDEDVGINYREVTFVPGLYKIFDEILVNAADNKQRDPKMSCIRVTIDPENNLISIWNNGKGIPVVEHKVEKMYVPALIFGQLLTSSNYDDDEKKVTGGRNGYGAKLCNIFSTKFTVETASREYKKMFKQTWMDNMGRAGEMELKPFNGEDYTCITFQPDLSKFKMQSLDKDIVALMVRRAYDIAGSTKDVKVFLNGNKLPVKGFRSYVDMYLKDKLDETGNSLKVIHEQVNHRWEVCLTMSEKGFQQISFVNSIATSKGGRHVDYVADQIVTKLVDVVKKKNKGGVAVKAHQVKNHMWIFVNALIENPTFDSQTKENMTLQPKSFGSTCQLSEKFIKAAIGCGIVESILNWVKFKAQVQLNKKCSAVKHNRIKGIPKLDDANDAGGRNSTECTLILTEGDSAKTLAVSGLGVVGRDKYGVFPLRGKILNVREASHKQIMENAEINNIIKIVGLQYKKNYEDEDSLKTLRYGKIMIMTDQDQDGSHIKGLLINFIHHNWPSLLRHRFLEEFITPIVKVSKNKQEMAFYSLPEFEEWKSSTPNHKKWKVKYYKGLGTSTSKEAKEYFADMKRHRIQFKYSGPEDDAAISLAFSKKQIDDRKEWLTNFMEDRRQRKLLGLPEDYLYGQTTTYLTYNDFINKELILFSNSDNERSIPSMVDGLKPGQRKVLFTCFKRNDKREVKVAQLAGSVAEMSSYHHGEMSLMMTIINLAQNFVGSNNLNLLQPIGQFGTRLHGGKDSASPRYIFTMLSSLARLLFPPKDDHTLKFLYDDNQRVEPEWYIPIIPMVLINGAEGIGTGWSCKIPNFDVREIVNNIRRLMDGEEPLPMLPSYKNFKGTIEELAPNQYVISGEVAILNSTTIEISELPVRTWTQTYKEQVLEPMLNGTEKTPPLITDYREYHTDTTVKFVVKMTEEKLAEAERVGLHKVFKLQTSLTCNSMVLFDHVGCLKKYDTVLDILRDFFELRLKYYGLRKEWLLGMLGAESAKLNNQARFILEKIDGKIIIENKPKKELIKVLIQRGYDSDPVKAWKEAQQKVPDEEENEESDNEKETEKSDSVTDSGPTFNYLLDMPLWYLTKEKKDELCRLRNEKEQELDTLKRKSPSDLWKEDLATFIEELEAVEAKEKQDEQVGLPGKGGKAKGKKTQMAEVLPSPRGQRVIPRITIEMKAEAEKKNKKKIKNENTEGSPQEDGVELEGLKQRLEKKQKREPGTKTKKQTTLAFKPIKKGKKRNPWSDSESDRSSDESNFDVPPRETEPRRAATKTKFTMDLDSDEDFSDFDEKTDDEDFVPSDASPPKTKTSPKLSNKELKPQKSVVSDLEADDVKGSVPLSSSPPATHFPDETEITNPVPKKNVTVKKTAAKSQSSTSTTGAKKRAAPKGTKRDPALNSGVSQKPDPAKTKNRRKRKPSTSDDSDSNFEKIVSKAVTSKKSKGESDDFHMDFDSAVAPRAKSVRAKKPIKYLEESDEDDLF

The assay addresses DNA topoisomerase 2-alpha (Homo sapiens, UniProt P11388). In words: Inhibition Assay. To be noted: pH 7.5; 4 °C. The source says:
In vitro inhibition of TOP2 alpha activity by BNS derivatives.
Take `CCCc1cc(=O)oc2c(C(=O)N3CCCc4ccccc43)c(OC)cc(OC)c12` [BNS-22]: the IC50 (usually the concentration at which inhibition is half-maximal) was 2.8 µM.
The value for `CCCc1cc(=O)oc2c(C(=O)N3CCc4ccccc4C3)c(OC)cc(OC)c12` [BNS-52] was > 100 µM.
As for `CCCc1cc(=O)oc2c(C(=O)N3CCC(Cc4ccccc4)CC3)c(OC)cc(OC)c12` [BNS-53], the figure is > 100 µM; as for `CCCc1cc(=O)oc2c(C(=O)N3CCCCC3)c(OC)cc(OC)c12` [BNS-54], > 100 µM; as for `COC(=O)Cc1cc(=O)oc2c(C(=O)N3CCCc4ccccc43)c(OC)cc(OC)c12` [BNS-65], 8.2 µM.
